Assay results reported in patent US9918964B2, “Reducing platelet activation, aggregation and platelet-stimulated thrombosis or blood coagulation by reducing mitochondrial respiration” (priority 2010, dated 2018).
Values after ≈ are worked out from the molar mass of the structure shown. Read-outs that look alike come from different tables or passages of the source.

How the values were obtained:
platelets in whole blood = experiment: Platelet function testing with the Hemostasis Mechanism Analyzer (HMA): clumping, sticking, clotting in whole blood; assay type: cell-based, human; details: for activity at 3300 µg/mL / activity at 5000 µg/mL / activity at 6700 µg/mL / activity at 700 µg/mL / activity at 670 µg/mL / activity at 11700 µg/mL / activity at 23300 µg/mL: Homo sapiens, Platelet; for activity at 700 µg/mL: Dosage (mg/ml) 0.7; for activity at 670 µg/mL: Dosage (mg/ml) 0.67
[1] = test system: mitochondria isolated from liver of tilapia (Sarotheridon mossambica); assay type: biochemical
[2] = read-out: % clump time increase
[3] = read-out: % stick time increase
[4] = Dosage (mg/ml) 3.3, 0 dosage = 100, read-out: % clot time increase
[5] = Dosage (mg/ml) 3.3, 0 dosage = 100, read-out: % clump time increase
[6] = Dosage (mg/ml) 3.3, 0 dosage = 100, read-out: % stick time increase
[7] = Dosage (mg/ml) 5, 0 dosage = 100, read-out: % clot time increase
[8] = Dosage (mg/ml) 5, 0 dosage = 100, read-out: % clump time increase
[9] = Dosage (mg/ml) 5, 0 dosage = 100, read-out: % stick time increase
[10] = Dosage (mg/ml) 6.7, 0 dosage = 100, read-out: % clot time increase
[11] = Dosage (mg/ml) 6.7, 0 dosage = 100, read-out: % clump time increase
[12] = Dosage (mg/ml) 6.7, 0 dosage = 100, read-out: % stick time increase
[13] = in vitro whole blood assay, clumping, sticking, clotting
[14] = 0 dosage = 100, read-out: % clot time increase
[15] = 0 dosage = 100, read-out: % clump time increase
[16] = 0 dosage = 100, read-out: % stick time increase

## C1CCc2nnnn2CC1 [Compound 52, 6,7,8,9-tetrahydro-5H-tetrazolo[1,5-a]azepine]
Platelets in whole blood; read-out: % clot time increase
  activity at 3300 µg/mL: 105%
  activity at 5000 µg/mL: 112%
  activity at 6700 µg/mL: 117%
Platelets in whole blood; [2]
  activity at 3300 µg/mL: 115%
  activity at 5000 µg/mL: 143%
  activity at 6700 µg/mL: 130%
Platelets in whole blood; [3]
  activity at 3300 µg/mL: 120%
  activity at 5000 µg/mL: 138%
  activity at 6700 µg/mL: 131%

## Cn1nnnc1S [Compound 53, 1-methyltetrazole-5-thiol]
[1]
  IC50 (mg/ml) mitochondria inhibition: 27.5 mg/mL (≈ 237 mM)
Platelets in whole blood; [4]
  activity at 3300 µg/mL: 117%
Platelets in whole blood; [5]
  activity at 3300 µg/mL: 124%
Platelets in whole blood; [6]
  activity at 3300 µg/mL: 117%
Platelets in whole blood; [7]
  activity at 5000 µg/mL: 132%
Platelets in whole blood; [8]
  activity at 5000 µg/mL: 185%
Platelets in whole blood; [9]
  activity at 5000 µg/mL: 176%
Platelets in whole blood; [10]
  activity at 6700 µg/mL: 160%
Platelets in whole blood; [11]
  activity at 6700 µg/mL: 292%
Platelets in whole blood; [12]
  activity at 6700 µg/mL: 265%

## Clc1nnnn1-c1ccccc1 [Compound 54, 5-chloro-1-phenyl-tetrazole]
[1]
  IC50 (mg/ml) mitochondria inhibition: 12.5 mg/mL (≈ 69.2 mM)
Platelets in whole blood; [13]
  activity in the platelet assays (active agent or inactive): inactive

## Cc1ncsc1CCO [Compound 60, 2-(4-methylthiazol-5-yl)ethanol]
Platelets in whole blood; [14]
  activity at 700 µg/mL: 100%
Platelets in whole blood; [15]
  activity at 700 µg/mL: 108%
Platelets in whole blood; [16]
  activity at 700 µg/mL: 103%
Platelets in whole blood; [4]
  activity at 3300 µg/mL: 104%
Platelets in whole blood; [5]
  activity at 3300 µg/mL: 136%
Platelets in whole blood; [6]
  activity at 3300 µg/mL: 135%
Platelets in whole blood; [7]
  activity at 5000 µg/mL: 110%
Platelets in whole blood; [8]
  activity at 5000 µg/mL: 158%
Platelets in whole blood; [9]
  activity at 5000 µg/mL: 155%
Platelets in whole blood; [10]
  activity at 6700 µg/mL: 115%
Platelets in whole blood; [11]
  activity at 6700 µg/mL: 192%
Platelets in whole blood; [12]
  activity at 6700 µg/mL: 182%

## COCCc1nn[nH]n1 [Compound 68, 5-(2-methoxyethyl)-2H-tetrazole]
Platelets in whole blood; [14]
  activity at 670 µg/mL: 108%
Platelets in whole blood; [15]
  activity at 670 µg/mL: 100%
Platelets in whole blood; [16]
  activity at 670 µg/mL: 110%
Platelets in whole blood; [4]
  activity at 3300 µg/mL: 107%
Platelets in whole blood; [5]
  activity at 3300 µg/mL: 100%
Platelets in whole blood; [6]
  activity at 3300 µg/mL: 114%
Platelets in whole blood; [10]
  activity at 6700 µg/mL: 129%
Platelets in whole blood; [11]
  activity at 6700 µg/mL: 186%
Platelets in whole blood; [12]
  activity at 6700 µg/mL: 175%

## NC(=O)c1nn[nH]n1 [Compound 71, 2H-tetrazole-5-carboxamide]
[1]
  IC50 (mg/ml) mitochondria inhibition: 36.3 mg/mL (≈ 321 mM)
Platelets in whole blood; read-out: % clot time increase
  activity at 3300 µg/mL: 112%
  activity at 5000 µg/mL: 122%
  activity at 6700 µg/mL: 137%
Platelets in whole blood; [2]
  activity at 3300 µg/mL: 126%
  activity at 5000 µg/mL: 171%
  activity at 6700 µg/mL: 236%
Platelets in whole blood; [3]
  activity at 3300 µg/mL: 116%
  activity at 5000 µg/mL: 153%
  activity at 6700 µg/mL: 205%

## Cn1cc[nH]c1=S [Compound 78, 3-methyl-1H-imidazole-2-thione, reference compound]
Platelets in whole blood; read-out: % clot time increase
  activity at 6700 µg/mL: 110%
  activity at 11700 µg/mL: 123%
  activity at 23300 µg/mL: 156%
Platelets in whole blood; [2]
  activity at 6700 µg/mL: 124%
  activity at 11700 µg/mL: 132%
  activity at 23300 µg/mL: 216%
Platelets in whole blood; [3]
  activity at 6700 µg/mL: 101%
  activity at 11700 µg/mL: 118%
  activity at 23300 µg/mL: 203%
Platelets in whole blood; [13]
  activity in the platelet assays (active agent or inactive): met the criteria for active agents

## COc1cc(/C=C/C(=O)/C=C(O)/C=C/c2ccc(O)c(OC)c2)ccc1O [Compound 85, (1E,4Z,6E)-5-hydroxy-1,7-bis(4-hydroxy-3-methoxy-phenyl)hepta-1,4,6-trien-3-one]
Platelets in whole blood; [13]
  activity in the platelet assays (active agent or inactive): none of them were active agents

## C=CCSCC=C [Compound 86, 3-allylsulfanylprop-1-ene]
Platelets in whole blood; [13]
  activity in the platelet assays (active agent or inactive): none of them were active agents

## CCCCC[C@H](O)CC(=O)CCc1ccc(O)c(OC)c1 [Compound 88, (5S)-5-hydroxy-1-(4-hydroxy-3-methoxy-phenyl)decan-3-one]
Platelets in whole blood; [4]
  activity at 3300 µg/mL: 104%
Platelets in whole blood; [5]
  activity at 3300 µg/mL: 107%
Platelets in whole blood; [6]
  activity at 3300 µg/mL: 100%
Platelets in whole blood; [10]
  activity at 6700 µg/mL: 102%
Platelets in whole blood; [11]
  activity at 6700 µg/mL: 106%
Platelets in whole blood; [12]
  activity at 6700 µg/mL: 101%
Platelets in whole blood; Dosage (mg/ml) 11.7, 0 dosage = 100, read-out: % clot time increase
  activity at 11700 µg/mL: 104%
Platelets in whole blood; Dosage (mg/ml) 11.7, 0 dosage = 100, read-out: % clump time increase
  activity at 11700 µg/mL: 111%
Platelets in whole blood; Dosage (mg/ml) 11.7, 0 dosage = 100, read-out: % stick time increase
  activity at 11700 µg/mL: 110%
Platelets in whole blood; Dosage (mg/ml) 23.3, 0 dosage = 100, read-out: % clot time increase
  activity at 23300 µg/mL: 100%
Platelets in whole blood; Dosage (mg/ml) 23.3, 0 dosage = 100, read-out: % clump time increase
  activity at 23300 µg/mL: 128%
Platelets in whole blood; Dosage (mg/ml) 23.3, 0 dosage = 100, read-out: % stick time increase
  activity at 23300 µg/mL: 132%
Platelets in whole blood; [13]
  activity in the platelet assays (active agent or inactive): none of them were active agents

## Oc1ccc(/C=C/c2cc(O)cc(O)c2)cc1 [Compound 89, 5-[(E)-2-(4-hydroxyphenyl)vinyl] benzene-1,3-diol]
Platelets in whole blood
  activity in the platelet assays (active agent or inactive): none of them were active agents

## N=C(N)NC(N)=S [Compound 102, carbamimidoylthiourea]
Platelets in whole blood; [13]
  activity in the platelet assays (active agent or inactive): none of them were active agents
